Laboratory results from patent US12338261B2 (SUMITOMO PHARMA ONCOLOGY, INC., priority 2015, dated 2025).
Where two headings read alike, the source gives them in different places. One block for each compound: values may come before it.

Legend:
[1] = type: in vitro ADME, rat; settings: for % Remaining: rat, plasma
Procedure: (§1) The plasma stability of compound IB′ was determined using plasma from four species. Results for mouse, rat, dog and human are shown in Tables 5, 6, 7 and 8 respectively. Alvocidib and flumazenil were used as controls. In mouse, rat and human plasma, compound IB′ maintained 100% stability after 5 hour incubation. In dog plasma, approximately 90% of compound IB′ remained after 5 hours.

[2] = type: in vitro ADME, mouse; settings: for % Remaining: mouse, plasma
Procedure: as §1

Dog plasma stability = type: in vitro ADME
Procedure: as §1

Human plasma stability = type: in vitro ADME
Procedure: The plasma stability of compound IB′ was determined using plasma from four species.

[3] = CD-1, mouse, in vivo
[4] = female SHO SCID mice, single dose
Procedure: Acute studies were performed in female SHO SCID mice using three animals per treatment group. […] Body weight measurements following oral dosing (FIGS. 2A-B) and intravenous (IV) dosing (FIG. 2C-D) were used, along with mortality and clinical observations to determine the maximum tolerated acute dose (MTDacute).

[5] = Maximum tolerated acute dose in rats
Procedure: (§2) Acute (i.e. single dose) toxicology studies were performed in rats. Acute studies were performed in female Sprague Dawley rats using three animals per treatment group. […] Body weight measurements following oral dosing (see FIG. 4A), along with mortality, clinical observations, food consumption (see FIG. 4B), and complete blood counts (CBCs; see Table 12) were used to determine the maximum tolerated acute dose (MTDacute).

[6] = rat, in vivo, po
Procedure: as §2

[7] = for MTDrepeat: female SHO SCID mice, five daily doses
Procedure: Repeat dose toxicology studies were performed in female SHO SCID mice using 3 animals per treatment group. […] Body weight measurements of animals treated by oral (see FIGS. 3A-B) and intravenous (see FIG. 3C-D) dosing over the course of the 5-day repeat dosing period and subsequent 5-day observation period, along with mortality and clinical observations, were used to determine the maximum tolerated dosing schedule (MTDrepeat).

[8] = Pharmacokinetic profile of alvocidib prodrugs in CD-1 mice (IV/PO)
[9] = rats, single oral dose 36 mg/kg

Compound: CN1CC[C@H](c2c(O)cc(O)c3c(=O)cc(-c4ccccc4Cl)oc23)[C@H](O)C1 [Alvocidib]
Bioavail. [3]: 102 ± 11.7 % F | AUC0-∞ ([3]; iv, 1 mg/kg): 517.0 ± 47.0 ng·h/mL | AUCLast ([3]; iv, 1 mg/kg): 498.0 ± 46.0 ng·h/mL | Clearance ([3]; iv, 1 mg/kg): 1.9 ± 0.2 L/h/kg | Half life ([3]; iv, 1 mg/kg): 2.0 ± 0.4 h | Vd ([3]; iv, 1 mg/kg): 5.5 ± 1.2 L/kg | VdSS ([3]; iv, 1 mg/kg): 3.8 ± 0.6 L/kg | AUC0-∞ ([3]; po, 10 mg/kg): 5341.1 ± 274.2 ng·h/mL | AUCLast ([3]; po, 10 mg/kg): 5034.1 ± 145.6 ng·h/mL | Half life ([3]; po, 10 mg/kg): 5.7 ± 0.7 h | % Remaining ([1]; 0 h): 100.00% | % Remaining ([1]; 0.5 h): 93.12% | % Remaining ([1]; 1 h): 90.20% | % Remaining ([1]; 2 h): 99.31% | % Remaining ([1]; 3 h): 98.69% | % Remaining ([1]; 4 h): 92.57% | % Remaining ([2]; 0 h): 100.00% | % Remaining ([2]; 0.5 h): 93.58% | % Remaining ([2]; 1 h): 103.12% | % Remaining ([2]; 2 h): 97.19% | % Remaining ([2]; 3 h): 117.38% | % Remaining ([2]; 4 h): 115.72% | MTDacute ([4]; dosed intravenously): 7.5 mg/kg | MTDacute ([4]; dosed orally): 15 mg/kg | NOAEL ([5]; female, Sprague Dawley, rat, in vivo, po): 9 mg/kg | HCT ([6]; 4.5 mg/kg): 43.6% | MCH ([6]; 4.5 mg/kg): 18.7 pg | MCHC ([6]; 4.5 mg/kg): 35.4 g/dL | MCV ([6]; 4.5 mg/kg): 52.7 fL | PLT ([6]; 4.5 mg/kg): 34.7 10^3/μL | RBC ([6]; 4.5 mg/kg): 8.3 10^6/μL | RDWA ([6]; 4.5 mg/kg): 16.0 fL | WBC ([6]; 4.5 mg/kg): 15.4 10^3/μL | platelet counts versus normal range ([6]; 4.5 mg/kg): outside the normal range | HCT ([6]; 9 mg/kg): 47.1% | MCH ([6]; 9 mg/kg): 19.3 pg | MCHC ([6]; 9 mg/kg): 35.7 g/dL | MCV ([6]; 9 mg/kg): 54.0 fL | PLT ([6]; 9 mg/kg): 36.3 10^3/μL | RBC ([6]; 9 mg/kg): 8.7 10^6/μL | RDWA ([6]; 9 mg/kg): 16.2 fL | WBC ([6]; 9 mg/kg): 16.8 10^3/μL | HCT ([6]; 18 mg/kg): 47.3% | MCH ([6]; 18 mg/kg): 19.3 pg | MCHC ([6]; 18 mg/kg): 35.9 g/dL | MCV ([6]; 18 mg/kg): 53.8 fL | PLT ([6]; 18 mg/kg): 36.1 10^3/μL | RBC ([6]; 18 mg/kg): 8.8 10^6/μL | RDWA ([6]; 18 mg/kg): 16.1 fL | WBC ([6]; 18 mg/kg): 16.9 10^3/μL | abnormal food consumption patterns ([6]; 18 mg/kg): abnormal food consumption patterns were observed | diarrhea ([6]; 18 mg/kg): did show signs of diarrhea | % Remaining (Dog plasma stability; dog plasma, 0 hours): 100.00% | % Remaining (Dog plasma stability; dog plasma, 0.5 hours): 96.41% | % Remaining (Dog plasma stability; dog plasma, 1 hour): 89.16% | % Remaining (Dog plasma stability; dog plasma, 2 hours): 105.76% | % Remaining (Dog plasma stability; dog plasma, 3 hours): 105.84% | % Remaining (Dog plasma stability; dog plasma, 4 hours): 97.65% | % Remaining (Dog plasma stability; dog plasma, 5 hours): 100.40% | % Remaining (Dog plasma stability; dog plasma, 5 hours, listed as alvocidib): 100% | MTDrepeat ([7]; dosed intravenously): 7.5 mg/kg | MTDrepeat ([7]; dosed orally): 7.5 mg/kg | clinical observations ([7]; mouse, in vivo, 15 mg/kg): Lethargy, body weight loss, and deaths were observed | % Remaining (Human plasma stability; human plasma, 0 hours): 100.00% | % Remaining (Human plasma stability; human plasma, 0.5 hours): 92.61% | % Remaining (Human plasma stability; human plasma, 1 hour): 93.54% | % Remaining (Human plasma stability; human plasma, 2 hours): 93.29% | % Remaining (Human plasma stability; human plasma, 3 hours): 111.62% | % Remaining (Human plasma stability; human plasma, 4 hours): 100.25% | % Remaining (Human plasma stability; human plasma, 5 hours): 100%

Compound: CN1CCC(c2c(OP(=O)(O)O)cc(O)c3c(=O)cc(-c4ccccc4Cl)oc23)C(O)C1 (stereo not drawn) [Compound IB]
clinical observations [5, 9]: Diarrhea, body weight loss and increased lethargy were observed | mortality [5, 9]: one animal died on day three, one animal died on day four, and one animal died on day 5 | MTDrepeat ([7]; dosed orally): 7.5 mg/kg

Further lines, results first:

plasma stability (in words) [1]: unstable | % Remaining ([1]; 0 h): 100.00% | % Remaining ([1]; 0.5 h): 42.23% | % Remaining ([1]; 1 h): 16.13% | % Remaining ([1]; 2 h): 1.69% | % Remaining ([1]; 3 h): 0.23% | % Remaining ([1]; 4 h): 0.00% | % Remaining ([1]; 5 h): 0.00% | plasma stability (in words) [2]: unstable | % Remaining ([2]; 0 h): 100.00% | % Remaining ([2]; 0.5 h): 29.96% | % Remaining ([2]; 1 h): 10.21% | % Remaining ([2]; 2 h): 1.56% | % Remaining ([2]; 3 h): 0.39% | % Remaining ([2]; 4 h): 0.20% | % Remaining ([2]; 5 h): 0.07% | % Remaining (Dog plasma stability; dog, plasma, 0 h): 100.00% | % Remaining (Dog plasma stability; dog, plasma, 0.5 h): 91.80% | % Remaining (Dog plasma stability; dog, plasma, 1 h): 92.00% | % Remaining (Dog plasma stability; dog, plasma, 2 h): 100.99% | % Remaining (Dog plasma stability; dog, plasma, 3 h): 115.10% | % Remaining (Dog plasma stability; dog, plasma, 4 h): 99.44% | % Remaining (Dog plasma stability; dog, plasma, 5 h): 100.53% | % Remaining (Human plasma stability; human, plasma, 0 h): 100.00% | % Remaining (Human plasma stability; human, plasma, 0.5 h): 96.56% | % Remaining (Human plasma stability; human, plasma, 1 h): 90.83% | % Remaining (Human plasma stability; human, plasma, 2 h): 92.41% | % Remaining (Human plasma stability; human, plasma, 3 h): 117.98% | % Remaining (Human plasma stability; human, plasma, 4 h): 95.32% | % Remaining (Human plasma stability; human, plasma, 5 h): 94.63%
Compound: CCOC(=O)c1ncn2c1CN(C)C(=O)c1cc(F)ccc1-2 [Flumazenil]

conversion to alvocidib in vivo (alvocidib detected in plasma samples) [8]: did not convert to alvocidib in vivo
Compound: CN1CC[C@H](c2c(O)cc(O)c3c(=O)cc(-c4ccccc4Cl)oc23)[C@H](OC(=O)C(C)(C)C)C1 [E]

conversion to alvocidib in vivo (alvocidib detected in plasma samples) [8]: did not convert to alvocidib in vivo
Compound: C[N+]1(C)CC[C@H](c2c(O)cc(O)c3c(=O)cc(-c4ccccc4Cl)oc23)[C@H](O)C1 [F]
